Experimental data as given in paper PMC10886425, “Antibacterial Activity and Cytotoxicity Screening of Acyldepsipeptide-1 Analogues Conjugated to Silver/Indium/Sulphide Quantum Dots” (Antibiotics, 2024).
In brackets after ≈: the same amount, converted by molar mass. Read-outs that look alike come from different tables or passages of the source.

Columns and labels:
[1] = Zeta potential (zetasizer); format: physicochemical; conditions: Malvern zetasizer; for Zeta Potential after Conjugation: after conjugation to gelatin-capped AgInS2 QDs; for Zeta Potential before Conjugation: unconjugated ADEP1 analogue or AgInS2 QDs alone
Protocol: (§1) A Spectro Xepos-05 energy-dispersive X-ray fluorescence (ED-XRF, Rigaku, TX, USA) instrument was used to determine the Ag, In, and S concentrations in the gelatin-capped AgInS2 QD powder. The core sizes of AgInS2 QDs and AgInS2-ADEP1 analogue conjugates were analyzed by the high-resolution transmission electron microscope (HR-TEM, JEOL, Tokyo, Japan). Fourier transform infrared spectroscopy (FTIR) spectra were recorded using a Perkin Elmer Spectrum Two UATR-FTIR spectrometer (PerkinElmer, Buckinghamshire, UK). The Hitachi F-2700FL spectrofluorophotometer (Hitachi, Tokyo, Japan) was used for the fluorescence measurements. Malvern system 4700 zetasizer (Malvern, Great Malvern, UK) together with a dynamic light scattering (DLS) technique were used to determine the zeta potential and particle hydrodynamic size of the AgInS2 QDs and AgInS2-ADEP1 analogue conjugates using.

[2] = Hydrodynamic size by dynamic light scattering (DLS); format: physicochemical; conditions: AgInS2 QDs alone or after conjugation with the named ADEP1 analogue
Protocol: as §1

[3] = tested on: Bacillus subtilis ATCC 11774; conditions: B. subtilis; free ADEP1 analogues; cited from earlier work
Excerpt: Table 4 MIC and MBC values of the AgInS2 QD-ADEP1 analogue conjugates and ADEP1 analogues. | column: B. subtilis / MIC µM; B. subtilis / MBC µM

[4] = tested on: Staphylococcus aureus ATCC 25,923; conditions: S. aureus; free ADEP1 analogues; cited from earlier work
Excerpt: Table 4 MIC and MBC values of the AgInS2 QD-ADEP1 analogue conjugates and ADEP1 analogues. | column: S. aureus / MIC µM; S. aureus / MBC µM

[5] = tested on: Methicillin-resistant Staphylococcus aureus (MRSA) ATCC 43300; conditions: free ADEP1 analogues; cited from earlier work
Excerpt: Table 4 MIC and MBC values of the AgInS2 QD-ADEP1 analogue conjugates and ADEP1 analogues. | column: MRSA / MIC µM; MRSA / MBC µM

[6] = tested on: Pseudomonas aeruginosa ATCC 15,442; conditions: P. aeruginosa; free ADEP1 analogues; cited from earlier work
Excerpt: Table 4 MIC and MBC values of the AgInS2 QD-ADEP1 analogue conjugates and ADEP1 analogues. | column: P. aeruginosa / MIC µM; P. aeruginosa / MBC µM

[7] = tested on: Escherichia coli ATCC 33,876; conditions: E. coli; free ADEP1 analogues; cited from earlier work
Excerpt: Table 4 MIC and MBC values of the AgInS2 QD-ADEP1 analogue conjugates and ADEP1 analogues. | column: E. coli / MIC µM; E. coli / MBC µM

[8] = tested on: Bacillus subtilis ATCC 11774; test: Broth microdilution susceptibility assay (MIC) with plating on agar (MBC); format: cell-based; conditions: ATCC11774, B. subtilis, overnight 37 °C, conjugate concentration as loaded ADEP1 analogue
Excerpt: (§2) ADEP1 analogues (SC005-8) were synthesized in-house, as described by Cobongela et al., [11]. 1-Ethyl-3-(3-dimethylaminopropyl) carbodiimide (EDC), […] (sulfo-NHS), dimethyl sulfoxide (DMSO), thioglycolic acid (TGA), silver nitrate (AgNO3), sodium sulfide (Na2S·xH2O), gelatin, Dulbecco’s Modified Eagle Medium (DMEM), phosphate, trypsin, penicillin-streptomycin, fetal bovine serum (FBS), 3-(4,5-dimethylthiazol-2-yl)-5-(3-carboxymethoxyphenyl)-2-(4-sulfophenyl)-2H-tetrazolium (MTS dye), and trypan blue stain dye were all purchased from Sigma (St Louis, MO, USA). Bacillus subtilis American Type Culture Collection (ATCC) 11774, Staphylococcus aureus ATCC 25,923 and Methicillin-resistant Staphylococcus aureus (MRSA) ATCC 43300, and two Gram-negative (Escherichia coli ATCC 33,876 and Pseudomonas aeruginosa ATCC 15,442 were purchased from ATCC (Manassas, VA, USA). Human embryonic kidney 293 (HEK-293) cells were purchased from Cellonex (Randburg, Gauteng Province, South Africa).
(§3) The MIC and MBC of the AgInS2-ADEP1 analogue conjugates against B. subtilis, S. aureus, MRSA, P. aeruginosa and E. coli was determined using the broth microdilution susceptibility assay, following a previously described protocol. Briefly, overnight-grown bacterial cultures were adjusted to approximately 1.5 × 10^8 CFU/mL in a sterile Luria–Bertani broth. The concentration of ADEP1 on AgInS2-ADEP1 analogue conjugates was calculated based on the ADEP1 analogues calibration curve. AgInS2-ADEP1 analogue conjugates and ADEP1 analogues were diluted via 2-fold serial dilution with broth containing a final concentration range of 0.8–100 µM and 15.6–2000 µM, respectively. Gentamicin (concentration range between 0.007 and 6.7 mM) was used as a positive control for B. subtilis, S. aureus, MRSA, and P. aeruginosa, while ampicillin (concentration range between 0.18 and 6.7 mM) was used as a positive control for E. coli, and 5% DMSO was used as a negative control. The 96-well plates were then incubated overnight at 37 °C. […] The MBC was determined as the lowest concentration resulting in complete […].

[9] = tested on: Methicillin-resistant Staphylococcus aureus (MRSA) ATCC 43300; test: as above; format: cell-based; conditions: overnight 37 °C, conjugate concentration as loaded ADEP1 analogue
Excerpt: as §2, §3

[10] = tested on: Pseudomonas aeruginosa ATCC 15,442; test: as above; format: cell-based; conditions: ATCC15, P. aeruginosa, overnight 37 °C, conjugate concentration as loaded ADEP1 analogue
Excerpt: as §2, §3

[11] = tested on: Staphylococcus aureus ATCC 25,923; test: as above; format: cell-based; conditions: ATCC25, S. aureus, overnight 37 °C, conjugate concentration as loaded ADEP1 analogue
Excerpt: as §2, §3

[12] = tested on: Escherichia coli ATCC 33,876; test: as above; format: cell-based; conditions: ATCC33, E. coli, overnight 37 °C, conjugate concentration as loaded ADEP1 analogue
Excerpt: as §2, §3

[13] = MIC wells plated on Luria-Bertani agar
[14] = Luria-Bertani broth, ~1.5 × 10^8 CFU/mL

Compound | Zeta Potential after Conjugation [1] [mV] | Zeta Potential before Conjugation [1] [mV] | Hydrodynamic Diameter [2] [nm] | MBC [3] [µM] | MIC [3] [µM] | MBC [4] [µM] | MIC [4] [µM] | MBC [5] [µM] | MIC [5] [µM] | MBC [6] [µM] | MIC [6] [µM] | MBC [7] [µM] | MIC [7] [µM] | other results
Adamantane-FCPAAPC; D-form amino acids (disulfide) [SC006, Disulphide bond cyclized ADEP1 analogue, Adamantane-FCPAAPC, D-form amino acids] | 1.38 ± 0.06 | −3.8 ± 1.1 | 44.2 ± 1.4 | 250 | 250 | 125 | 63 | 250 | 250 | 250 | 125 | 750 | 500 | –
CNC(C)C1CCC(N)C(OC2C(N)CC(N)C(OC3OCC(C)(O)C(NC)C3O)C2O)O1 (centres unmarked) [Gentamicin] | – | – | – | – | – | – | – | – | – | – | – | – | – | MIC ([8]; Luria-Bertani broth, ~1.5 × 10^8 CFU/mL, no visible growth): 26.1 µM (≈ 12.5 µg/mL); MBC [8, 13]: 52.3 µM (≈ 25 µg/mL); MIC [9, 14]: 26.2 µM (≈ 12.5 µg/mL); MBC [9, 13]: 52.4 µM (≈ 25 µg/mL); MIC [10, 14]: 419 µM (≈ 200 µg/mL); MBC [10, 13]: 838 µM (≈ 400 µg/mL); MIC [11, 14]: 0.5 µM (≈ 0.239 µg/mL); MBC [11, 13]: 1 µM (≈ 0.478 µg/mL)
Palmitic acid-FCPAAPC; L-form amino acids (disulfide) [SC008, Disulphide bond cyclized ADEP1 analogue, Palmitic acid-FCPAAPC, L-form amino acids] | 1.39 ± 0.09 | −6.9 ± 1.5 | 50.3 ± 1.6 | 125 | 125 | 125 | 63 | 500 | 250 | 250 | 125 | 750 | 500 | –
Palmitic acid-FCPAAPC; D-form amino acids (disulfide) [SC005, Disulphide bond cyclized ADEP1 analogue, Palmitic acid-FCPAAPC, D-form amino acids] | 1.46 ± 0.02 | −7.2 ± 1.6 | 49.6 ± 1.6 | 125 | 125 | 125 | 63 | 250 | 125 | 250 | 125 | 750 | 500 | –
CC1(C)S[C@@H]2[C@H](NC(=O)[C@H](N)c3ccccc3)C(=O)N2[C@H]1C(=O)O [Ampicillin] | – | – | – | – | – | – | – | – | – | – | – | – | – | MIC [12, 14]: 2860 µM (≈ 1000 µg/mL); MBC [12, 13]: 5720 µM (≈ 2000 µg/mL)
Adamantane-FCPAAPC; L-form amino acids (disulfide) [SC007, Disulphide bond cyclized ADEP1 analogue, Adamantane-FCPAAPC, L-form amino acids] | 1.00 ± 0.15 | −3.9 ± 0.8 | 44.4 ± 0.7 | 125 | 125 | 125 | 63 | 500 | 250 | 250 | 125 | 750 | 500 | –
